# Measured values reported in US8410117B2, “Imidazopyrimidine derivatives” (Hoffmann-La Roche Inc., priority 2010, dated 2013).
# Target: T1, human PDE10A (Homo sapiens, UniProt Q9Y233)
# T1 construct: The human PDE10A full length assay; purchased Enzo Life Science, Lausen, Switzerland SE-534
# Assay: human PDE10A full length Scintillation Proximity Assay (SPA)
# Type: biochemical
# Settings: 50 nM cGMP and 50 nM [3H]-cGMP, 20 minutes at room temperature; read-out: PDE10A inhibition IC50
# Procedure: The following test was carried out in order to determine the activity of the compounds of the present invention. PDE10 activity of the compounds of the present invention was determined using a Scintillation Proximity Assay (SPA)-based method similar to the one previously described (Fawcett, L. et al., Proc Natl Acad Sci USA (2000) 97(7):3702-3707).
# The human PDE10A full length assay was performed in 96-well micro titer plates. The reaction mixture of 50 μl contained 20 mM HEPES pH=7.5/10 mM MgCl2/0.05 mg/ml BSA (Sigma cat. #A-7906), 50 nM cGMP (Sigma, cat. #G6129) and 50 nM [^3H]-cGMP (GE Healthcare, cat. #TRK392 S.A. 13.2 Ci/mmol), 3.75 ng/well PDE10A enzyme (Enzo Life Science, Lausen, Switzerland cat #SE-534) with or without a specific test compound. A range of concentrations of the potential inhibitor was used to generate data for calculating the concentration of inhibitor resulting in 50% of the effect (e.g. IC50, the concentration of the competitor inhibiting PDE10A activity by 50%). Non-specific activity was tested without the enzyme. The reaction was initiated by the addition of the substrate solution (cGMP and [^3H]-cGMP) and allowed to progress for 20 minutes at room temperature. The reaction was terminated by adding 25 μl of YSi-SPA scintillation beads (GE Healthcare, cat. #RPNQ0150) in 18 mM zinc sulphate solution (stop reagent). After 1 h under shaking, the plate was centrifuged one minute at 170 g to allow beads to settle. Afterwards, radioactive counts were measured on a Perkin Elmer TopCount Scintillation plate reader.
# T1 sequence (Q9Y233 1-779 isoform Q9Y233-1): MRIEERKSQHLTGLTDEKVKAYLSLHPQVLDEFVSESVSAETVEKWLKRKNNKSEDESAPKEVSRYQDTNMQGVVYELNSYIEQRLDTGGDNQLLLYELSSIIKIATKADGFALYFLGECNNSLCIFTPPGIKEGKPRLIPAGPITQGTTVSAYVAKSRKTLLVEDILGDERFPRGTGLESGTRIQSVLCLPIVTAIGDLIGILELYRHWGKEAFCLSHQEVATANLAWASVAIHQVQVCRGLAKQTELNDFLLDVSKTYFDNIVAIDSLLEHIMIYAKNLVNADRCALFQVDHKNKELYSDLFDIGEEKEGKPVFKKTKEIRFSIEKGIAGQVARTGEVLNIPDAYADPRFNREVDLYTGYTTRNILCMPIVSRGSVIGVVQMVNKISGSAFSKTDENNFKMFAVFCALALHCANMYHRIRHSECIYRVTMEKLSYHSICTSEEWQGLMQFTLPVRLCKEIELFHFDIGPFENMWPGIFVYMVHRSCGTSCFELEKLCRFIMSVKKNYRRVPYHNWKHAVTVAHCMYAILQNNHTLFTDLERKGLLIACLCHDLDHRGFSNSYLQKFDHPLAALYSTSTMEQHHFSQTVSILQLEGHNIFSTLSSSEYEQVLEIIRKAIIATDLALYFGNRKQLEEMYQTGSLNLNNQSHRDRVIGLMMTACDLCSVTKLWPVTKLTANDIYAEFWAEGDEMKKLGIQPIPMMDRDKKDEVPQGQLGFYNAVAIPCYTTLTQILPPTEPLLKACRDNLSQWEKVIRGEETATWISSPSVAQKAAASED
row,SMILES,IC50
1,"CC(C)CN(C)C(=O)c1cnn(C)c1C(=O)Nc1ccn2cc(-c3ccccc3)nc2n1 [Example 71, 2-Methyl-2H-pyrazole-3,4-dicarboxylic acid 4-(isobutyl-methyl-amide) 3-[(2-phenyl-imidazo[1,2-a]pyrimidin-7-yl)-amide]]",17.6 nM
2,"O=C(NCC(F)(F)F)c1nccnc1C(=O)Nc1ccn2cc(-c3ccccc3)nc2n1 [Example 43, Pyrazine-2,3-dicarboxylic acid 2-[(2-phenyl-imidazo[1,2-a]pyrimidin-7-yl)-amide]3-[(2,2,2-trifluoro-ethyl)-amide]]",900 nM
3,"COCCN(C)C(=O)c1cnn(C)c1C(=O)Nc1ccn2cc(-c3cccc(OC)c3)nc2n1 [Example 101, 2-Methyl-2H-pyrazole-3,4-dicarboxylic acid 4-[(2-methoxy-ethyl)-methyl-amide]3-{[2-(3-methoxy-phenyl)-imidazo[1,2-a]pyrimidin-7-yl]amide}]",22 nM
4,COc1cccc(-c2cn3ccc(NC(=O)c4c(C(=O)N(C)CCOCCF)cnn4C)nc3n2)c1 [Example 110],222 nM
5,"Cc1oc(C2CC2)nc1CNC(=O)c1cnn(C)c1C(=O)Nc1ccn2cc(-c3ccccc3)nc2n1 [Example 165, N4-((2-cyclopropyl-5-methyloxazol-4-yl)methyl)-1-methyl-N5-(2-phenylimidazo[1,2-a]pyrimidin-7-yl)-1H-pyrazole-4,5-dicarboxamide]",776 nM
6,"Cn1ncc(C(=O)N2CCC2)c1C(=O)Nc1ccn2cc(-c3ccc(Cl)s3)nc2n1 [Example 74, 4-(Azetidine-1-carbonyl)-2-methyl-2H-pyrazole-3-carboxylic acid [2-(5-chloro-thiophen-2-yl)-imidazo[1,2-a]pyrimidin-7-yl]-amide]",4 nM
7,"Cn1ncc(C(=O)N2CCC2)c1C(=O)Nc1ccn2cc(-c3ccccc3)nc2n1 [Example 29, 4-(Azetidine-1-carbonyl)-2-methyl-2H-pyrazole-3-carboxylic acid (2-phenyl-imidazo[1,2-a]pyrimidin-7-yl)-amide]",3.3 nM
8,"COc1cccc(-c2cn3ccc(NC(=O)c4c(C(=O)N(C)C)cnn4C)nc3n2)c1 [Example 85, 2-Methyl-2H-pyrazole-3,4-dicarboxylic acid 4-dimethylamide 3-{[2-(3-methoxy-phenyl)-imidazo[1,2-a]pyrimidin-7-yl]-amide}]",4 nM
9,"CCCN(C)C(=O)c1cnn(C)c1C(=O)Nc1ccn2cc(-c3ccccc3)nc2n1 [Example 56, 2-Methyl-2H-pyrazole-3,4-dicarboxylic acid 4-(methyl-propyl-amide) 3-[(2-phenyl-imidazo[1,2-a]pyrimidin-7-yl)-amide]]",17.3 nM
10,Cn1ncc(C(=O)NCCCO)c1C(=O)Nc1ccn2cc(-c3ccccc3)nc2n1 [Example 38],22.9 nM
11,"Cn1ncc(C(=O)NCc2ccccn2)c1C(=O)Nc1ccn2cc(-c3ccccc3)nc2n1 [Example 118, 1-methyl-N5-(2-phenylimidazo[1,2-a]pyrimidin-7-yl)-N4-(pyridin-2-ylmethyl)-1H-pyrazole-4,5-dicarboxamide]",11.9 nM
12,"O=C(Nc1ccn2cc(-c3ccccc3)nc2n1)c1cccc(Cl)n1 [Example 21, 6-Chloro-pyridine-2-carboxylic acid (2-phenyl-imidazo[1,2-a]pyrimidin-7-yl)-amide]",314 nM
13,"Cn1ncc(C(=O)N2CCC2)c1C(=O)Nc1ccn2cc(-c3cccc(O)c3)nc2n1 [Example 83, 4-(Azetidine-1-carbonyl)-2-methyl-2H-pyrazole-3-carboxylic acid [2-(3-hydroxy-phenyl)-imidazo[1,2-a]pyrimidin-7-yl]-amide]",3.4 nM
14,"Cn1ncc(C(=O)N2CCC2)c1C(=O)Nc1ccn2cc(-c3cccc(OCF)c3)nc2n1 [Example 82, 4-(Azetidine-1-carbonyl)-N-(2-(3-(fluoromethoxy)phenyl)imidazo[1,2-a]pyrimidin-7-yl)-1-methyl-1H-pyrazole-5-carboxamide]",3.4 nM
15,"Cn1ncc(C(=O)N2CCC2)c1C(=O)Nc1ccn2cc(-c3cccc(-c4ccccc4)c3)nc2n1 [Example 128, 4-(azetidine-1-carbonyl)-N-(2-(biphenyl-3-yl)imidazo[1,2-a]pyrimidin-7-yl)-1-methyl-1H-pyrazole-5-carboxamide]",26 nM
16,"Cn1ncc(C(=O)N2CC(F)(F)C2)c1C(=O)Nc1ccn2cc(-c3ccccc3)nc2n1 [Example 34, 4-(3,3-Difluoro-azetidine-1-carbonyl)-2-methyl-2H-pyrazole-3-carboxylic acid (2-phenyl-imidazo[1,2-a]pyrimidin-7-yl)-amide]",35 nM
17,"CN(C)C(=O)c1cnn(C)c1C(=O)Nc1ccn2cc(-c3cccc(O)c3)nc2n1 [Example 84, 2-Methyl-2H-pyrazole-3,4-dicarboxylic acid 4-dimethylamide 3-{[2-(3-hydroxy-phenyl)-imidazo[1,2-a]pyrimidin-7-yl]-amide}]",3.8 nM
18,"CCN(C)C(=O)c1nn(C)cc1C(=O)Nc1ccn2cc(-c3ccccc3)nc2n1 [Example 67, 1-Methyl-1H-pyrazole-3,4-dicarboxylic acid 3-(ethyl-methyl-amide) 4-[(2-phenyl-imidazo[1,2-a]pyrimidin-7-yl)-amide]]",25.7 nM
19,"Cn1ncc(C(=O)NCC#N)c1C(=O)Nc1ccn2cc(-c3ccccc3)nc2n1 [Example 125, N4-(cyanomethyl)-1-methyl-N5-(2-phenylimidazo[1,2-a]pyrimidin-7-yl)-1H-pyrazole-4,5-dicarboxamide]",18.7 nM
20,"Cc1cc(CNC(=O)c2cnn(C)c2C(=O)Nc2ccn3cc(-c4ccccc4)nc3n2)no1 [Example 143, 1-methyl-N-4-((5-methylisoxazol-3-yl)methyl)-N5-(2-phenylimidazo[1,2-a]pyrimidin-7-yl)-1H-pyrazole-4,5-dicarboxamide]",162 nM
21,"COc1ncccc1CNC(=O)c1cnn(C)c1C(=O)Nc1ccn2cc(-c3ccccc3)nc2n1 [Example 161, N4-((2-methoxypyridin-3-yl)methyl)-1-methyl-N5-(2-phenylimidazo[1,2-a]pyrimidin-7-yl)-1H-pyrazole-4,5-dicarboxamide]",547 nM

# The remaining lines, values ahead:
row,IC50,SMILES
1,359 nM,"CCCNC(=O)c1[nH]nnc1C(=O)Nc1ccn2cc(-c3ccccc3)nc2n1 [Example 156, N4-(2-phenylimidazo[1,2-a]pyrimidin-7-yl)-N5-propyl-1H-1,2,3-triazole-4,5-dicarboxamide]"
2,36.6 nM,"CC(=O)Oc1cccc(-c2cn3ccc(NC(=O)c4c(C(=O)N5CCC5)cnn4C)nc3n2)c1 [Example 105, 3-(7-(4-(azetidine-1-carbonyl)-1-methyl-1H-pyrazole-5-carboxamido)imidazo[1,2-a]pyrimidin-2-yl)phenyl acetate]"
3,210 nM,"Cn1ncc(C(=O)NC2(C#N)CC2)c1C(=O)Nc1ccn2cc(-c3ccccc3)nc2n1 [Example 145, N4-(1-cyanocyclopropyl)-1-methyl-N5-(2-phenylimidazo[1,2-a]pyrimidin-7-yl)-1H-pyrazole-4,5-dicarboxamide]"
4,263 nM,"COCCNC(=O)c1[nH]nnc1C(=O)Nc1ccn2cc(-c3ccccc3)nc2n1 [Example 150, N5-(2-methoxyethyl)-N4-(2-phenylimidazo[1,2-a]pyrimidin-7-yl)-1H-1,2,3-triazole-4,5-dicarboxamide]"
5,52.2 nM,"Cn1ncc(C(=O)Nc2ccccc2)c1C(=O)Nc1ccn2cc(-c3ccccc3)nc2n1 [Example 133, 1-methyl-N4-phenyl-N5-(2-phenylimidazo[1,2-a]pyrimidin-7-yl)-1H-pyrazole-4,5-dicarboxamide]"
6,6.5 nM,"Cn1ncc(C(=O)N2CC(F)C2)c1C(=O)Nc1ccn2cc(-c3cccc(F)c3)nc2n1 [Example 92, 4-(3-Fluoro-azetidine-1-carbonyl)-2-methyl-2H-pyrazole-3-carboxylic acid [2-(3-fluoro-phenyl)-imidazo[1,2-a]pyrimidin-7-yl]-amide]"
7,57.6 nM,"Cn1ncc(C(=O)NC2(C)COC2)c1C(=O)Nc1ccn2cc(-c3ccccc3)nc2n1 [Example 134, 1-methyl-N4-(3-methyloxetan-3-yl)-N5-(2-phenylimidazo[1,2-a]pyrimidin-7-yl)-1H-pyrazole-4,5-dicarboxamide]"
8,18.8 nM,"CC(C)Cn1ncc(Cl)c1C(=O)Nc1ccn2cc(-c3ccccc3)nc2n1 [Example 12, 4-Chloro-2-isobutyl-2H-pyrazole-3-carboxylic acid (2-phenyl-imidazo[1,2-a]pyrimidin-7-yl)-amide]"
9,64.7 nM,"CCCn1ncc(Cl)c1C(=O)Nc1ccn2cc(-c3ccccc3)nc2n1 [Example 8, 4-Chloro-2-propyl-2H-pyrazole-3-carboxylic acid (2-phenyl-imidazo[1,2-a]pyrimidin-7-yl)-amide]"
10,389 nM,"Cn1ccc(CNC(=O)c2cnn(C)c2C(=O)Nc2ccn3cc(-c4ccccc4)nc3n2)n1 [Example 157, 1-methyl-N-4-((1-methyl-1H-pyrazol-3-yl)methyl)-N5-(2-phenylimidazo[1,2-a]pyrimidin-7-yl)-1H-pyrazole-4,5-dicarboxamide]"
